The text below walks through data of paper PMC12176268, “Structural Features and Photophysical and Antiproliferative Properties of Me2N‑pbt-Cycloplatinated Complexes with Picolinate Ligands” (Inorganic Chemistry, 2025).

Where two headings read alike, the source gives them in different places.

One series has as its system MDA-MB-231. The series is described as follows: MTT cell viability assay on MDA-MB-231 cells, dark and 450 nm irradiation. It counts as cell-based, human. Particulars: for EC50: MTT. An excerpt: (§1) (C∧N) cyclometalated Pt(II) complexes have been previously reported to have strong antiproliferative activities when associated with phenanthroline-based, diphosphine, acyclic diamino carbenes, or picolinate ligands. In particular, (Me2N-pbt)-cyclometalated platinum complexes have been previously reported by some of us to have antiproliferative properties in the micromolar range on a panel of cancer cell lines, prompting us to investigate the anticancer properties of complexes 1–4 in dark conditions and, considering their high quantum yield (ϕΔ) of ^1O2 generation, under irradiation conditions. Due to the poor solubility of the complexes in an aqueous environment, complexes 1–4 were first dissolved in DMSO and diluted in the culture media to reach a final concentration of 1% DMSO when incubated with the cells. All complexes were screened against the so-called “triple-negative” breast cancer cell line MDA-MB-231, lung adenocarcinoma cell line A549, and the noncancerous breast cell line MCF-10A for 72 h in dark conditions and under 5 min irradiation at 450 nm (see Experimental Section for details). The irradiation time was kept short to prevent light-induced toxicity of the energetic wavelength observed at longer irradiation times (data not shown). The measurement of the effective concentration at 50% (EC50) was carried out using the classical MTT assay, and the data are provided in Table .
(§2) In dark conditions, we could notice a strong influence of substituents on the picolinate ligands. […] This can be correlated with its poor stability in the culture medium mentioned above, which might reduce its cellular uptake. […] However, in dark conditions, no particular selectivity for cancer cells could be observed with similar activity measured against the noncancerous cell line MCF-10A. For the “light” experiments, the cells were preincubated with the complexes for 4 h in the dark, irradiated at 450 nm for 5 min, and then put back in the dark until 72 h. The photoactivity index (PI) values, defined as the ratio between the EC50 in dark conditions and the EC50 after irradiation for each cell line, are shown in Figure .
(§3) The human lung adenocarcinoma cell line A549 and human breast cancer cell line MDA-MB-231 were cultivated in DMEM (Dulbecco’s modified Eagle’s medium) containing GlutaMax I supplemented with 10% FBS at 37 °C in a humidified atmosphere and 5% CO2. The noncancerous cell line MCF-10A was maintained in DMEM:F12 (1:1) cell culture media, 5% heat-inactivated horse serum, supplemented with HEPES (20 mM), L-glutamine (2 mM), epidermal growth factor (20 ng/mL), hydrocortisone (500 ng/mL), cholera toxin (100 ng/mL), and insulin (10 μg/mL). Cell viability was evaluated by using a colorimetric method based on the tetrazolium salt MTT [3-(4,5-dimethylthiazol-2-yl)-2,5-diphenyltetrazolium bromide], which is reduced by viable cells to yield purple formazan crystals. Cells were seeded in 96-well plates at a density of 40000 cells/mL (100 μL per well). Stock solutions were prepared in DMSO for complexes 1–4 and in water for cisplatin. […] For dark experiments, after overnight attachment, a dilution series of the compounds was added to the medium, and the cells were incubated for a further 72 h. For the irradiated experiments, after overnight attachment, a dilution series of the compounds was added to the medium, and the cells were preincubated for 4 h. The cells were then irradiated at 450 nm for 5 min with a Kessil Lamp (power: 3 mW/cm^2, 1.13 × 10^–8 Einstein/s at 20 cm distance between the light source and 96-well plate) and the incubation was continued until 72 h. After 72 h, the medium was removed and the cells were incubated with MTT solution in PBS (10 μL of 5 mg/mL) for 2–3 h. The formed purple formazan crystals were dissolved in 100 μL of DMSO by thorough shaking, and the absorbance at 580 nm was read using a microplate reader (FLUOstar OPTIMA, BMG Labtech). Each test was performed with at least 3 replicates and repeated at least 3 times. […]
A general note: Formazan colour is commonly taken as a measure of viable cells.

The subject of a further series is A549. The series can be described thus: MTT cell viability assay on A549 cells, dark and 450 nm irradiation. To be noted: for EC50: MTT. It counts as cell-based, human.
Excerpt: as §1, §2, §3

A short description of series [1]: Stability in serum-free DMEM containing 5% DMSO by UV–vis. It counts as physicochemical. Particulars: DMEM with 5% DMSO, 25 μM, 37 °C. An excerpt:
The stability of complexes 1–4 was then investigated in more biologically relevant media by UV–visible spectroscopy. First, the stability of the complexes was studied in phosphate-buffered saline (PBS) containing 5% DMSO (Figure S30). […] Only a decrease in the intensity of all bands was observed, which could be attributed to partial aggregation and/or precipitation. […] The stability of complexes 1–4 was next studied in serum-free DMEM cell culture containing 5% DMSO (Figure S31). […] This final species seemed to have spectral features similar to those observed for complex 4 (Figure S31A). […] The similarity of the spectral features of the transformed species in all cases seemed to point to the formation of a common species upon incubation in DMEM, which we tentatively attribute to the decoordination of the picolinate ligands with a substituent-dependent kinetics; the COOH group favored the release of the picolinate ligand, while both NH2 and OH substituents seemed to slow down this process.
The UV–vis spectra of complexes 1–4 were recorded in PBS:DMSO (95/5) and serum-free DMEM:DMSO (95/5) at a concentration of 25 μM on a Cary 50 spectrophotometer (Varian).

Consider “[Pt(Me2N-pbt)(3-OH-pic-κN,O)] [Complex 3]”, for which the concentration giving a half-maximal response (EC50) (in general, the concentration that produces a half-maximal response) with MDA-MB-231 (4 h preincubation, 5 min irradiation at 450 nm, then dark until 72 h, read-out: EC50 MDA-MB-231 light) is 220 ± 30 nM; with MDA-MB-231 (72 h incubation at 37 °C, dark, read-out: EC50 MDA-MB-231 dark), 2600 ± 800 nM; in the series with A549 (4 h preincubation, 5 min irradiation at 450 nm, then dark until 72 h, read-out: EC50 A549 light) it was 1100 ± 80 nM; with A549 (72 h incubation at 37 °C, dark, read-out: EC50 A549 dark), 6100 ± 200 nM. In the series with MDA-MB-231 (dark conditions), the “reduction of the antiproliferative activity relative to 1, MDA-MB-231” value was roughly 5 times. The “lower activity toward MDA-MB-231 cells compared to the noncancerous cells” value in the series on MDA-MB-231 (dark conditions, versus MCF-10A) turned out to be 2 fold. Further, the “activity on MDA-MB-231 compared to the noncancerous cell line” value in the series with MDA-MB-231 (upon irradiation (450 nm, 5 min), versus MCF-10A) is “twice as active”. For the same substance, in the series with A549 (5 min irradiation at 450 nm), the “photoactivity index (PI), EC50 dark / EC50 after irradiation, A549” value is given as 5.6. Moreover, the “reduction of the antiproliferative activity relative to 1, A549” value in the series with A549 (dark conditions) was roughly 5 times. The “stability in serum-free DMEM, UV–vis spectral changes, 24 h” value in series [1] (24 h) was “spectral features of both complexes changed”. The “stability in serum-free DMEM, UV–vis spectral changes, first 4 h” value in series [1] (first 4 h, dark or with 5 min irradiation at 450 nm) is given as “no spectral changes”.
